Patent US20230149409A1, “TREATMENT OF HUMAN PAPILLOMAVIRUS-ASSOCIATED CANCERS BY PD-L1 INHIBITORS” (priority 2021, published 2023)
Each block holds one compound with its values, some of them ahead of it.

Legend:
[1] = molecular target: T1, PD-L1 on CD14+ cells in human whole blood (Homo sapiens, UniProt Q9NZQ7); experiment: PD-L1 whole blood internalization assay; format: cell-based; conditions: 1 ng/mL interferon γ, CD14+ gated, 24 hour
T1 construct: Cells were gated on CD14+ (BD Biosciences) and PD-L1 expression determined by mean fluorescence intensity; host or cells: CD14+ cells in normal human whole blood, stimulated with human interferon gamma
Procedure, shortened: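 Normal human whole blood exposed to compound concentration range plus 1 ng/mL IFN-γ for 18–20 h at 37 °C, then stained for PD-L1 and CD14, red cells lysed/fixed. PD-L1 MFI measured on CD14+ gated cells by flow cytometry; IC50 from percent inhibition versus log concentration fit.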

[2] = molecular target: T2, PD-⅟PD-L1 (recombinant human PD-L1 protein and human PD-1 protein) (Homo sapiens, UniProt Q9NZQ7); experiment: Homogeneous Time-Resolved Fluorescence (HTRF) PD-1/PD-L1 binding assay; conditions: 3 nM PD1, 10 nM PD-L1, 25° C., PBS pH 7.4
T2 construct: Recombinant human PD-L1 protein (19-238) with a His-tag at the C-terminus; purchased AcroBiosystems PD1-H5229 (PD-L1); PD1-H5257 (PD-1)

[3] = tested on: select advanced solid tumors (HPV+ carcinomas); experiment: Phase 1 open-label clinical trial of Compound 24; format: in vivo, human; design: key: complete response (CR); partial response (PR); stable disease (SD); progressive disease (PD)
From the text: Two open-label, nonrandomized, global multicenter Phase 1 studies in participants with select advanced solid tumors are being conducted for Compounds 24 and 30 in Table 1 supra. In addition to the primary endpoint of determining safety, tolerability, PAD and/or maximum tolerated dose (MTD) of each compound, the studies are exploring preliminary efficacy (complete response (CR), partial response (PR), stable disease (SD), or progressive disease (PD)) in participants with select advanced cancers, including virally mediated tumors such as HPV+ carcinomas. HPV+ tumors can be determined by a local laboratory using p16 IHC, polymerase chain reaction methods, or other locally-available method to detect HPV. Results for patients having solid tumors whose HPV+ status was confirmed, suspected or negative are shown below for Compound 24 and Compound 30 in Tables 4 and 5, respectively.

[4] = tested on: PD-L1 (U2OS/PD-L1 cells, Jurkat-PD-1-SHP cells); experiment: Src Homology Region 2 Domain-containing Phosphatase (SHP) assay; format: cell-based; conditions: Homo sapiens; U2OS/PD-L1 + Jurkat-PD-1-SHP cells, 2 hours
Procedure, shortened: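 U2OS/PD-L1 cells and Jurkat-PD-1-SHP cells (5,000 each per well) were co-incubated with compound in RPMI1640/1% FBS for 2 h at 37° C, with final DMSO 0.05%. PathHunter chemiluminescence was read after 1 h at room temperature. IC50 was fitted from percent of DMSO-control activity against log concentration.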

[5] = tested on: PD-L1 (PD-L1 aAPC/CHO-K1 cells, Jurkat-PD-1-NFAT effector cells); experiment: Nuclear Factor of Activated T-cells (NFAT) assay; format: cell-based; conditions: Cricetulus griseus; PD-L1 aAPC/CHO-K1 + Jurkat-PD-1-NFAT cells, 24 hours
Procedure, shortened: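 PD-L1 aAPC/CHO-K1 cells (8000/well) were treated with compound (0.4% DMSO, 2 µM final), then co-cultured with Jurkat-PD-1-NFAT effector cells for 24 hours at 37° C. NFAT luciferase luminescence was normalized to DMSO as fold induction. Maximum induction is relative to the control compound's top FOI; EC50 is from curve fitting.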

T1 sequence (Q9NZQ7 19-290): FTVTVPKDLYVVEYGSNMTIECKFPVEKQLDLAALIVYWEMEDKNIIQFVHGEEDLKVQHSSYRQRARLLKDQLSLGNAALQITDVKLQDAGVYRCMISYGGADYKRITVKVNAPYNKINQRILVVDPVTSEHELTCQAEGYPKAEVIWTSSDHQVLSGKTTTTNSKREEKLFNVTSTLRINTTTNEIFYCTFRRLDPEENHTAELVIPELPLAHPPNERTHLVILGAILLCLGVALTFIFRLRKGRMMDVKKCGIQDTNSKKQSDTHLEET
T2 sequence (Q9NZQ7 19-238): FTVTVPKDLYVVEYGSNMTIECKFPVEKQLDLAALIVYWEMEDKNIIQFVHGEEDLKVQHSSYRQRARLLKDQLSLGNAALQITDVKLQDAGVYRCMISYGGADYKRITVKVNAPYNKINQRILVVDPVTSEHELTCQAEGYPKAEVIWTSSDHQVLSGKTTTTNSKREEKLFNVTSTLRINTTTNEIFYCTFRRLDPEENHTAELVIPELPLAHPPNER

SMILES: Cc1c(Nc2nc(C(F)F)nc3cc(CN4CC[C@@H](O)C4)cnc23)cccc1-c1cccc(-c2nc3cc(CN4CCC(C(=O)O)CC4)cc(C#N)c3o2)c1C [Compound 24]
IC50 [1]: < 100 nM | IC50 [2]: < 10 nM | Best Overall Response ([3]; Patient 1, 200 mg QD, Cervical cancer (AC), HPV/p16 status Not determined): SD | Best Overall Response ([3]; Patient 2, 200 mg BID, Cervical cancer (clear cell), HPV/p16 status Not determined): PD | Best Overall Response ([3]; Patient 3, 400 mg BID, Anal carcinoma, HPV 16 positive): SD | Best Overall Response ([3]; Patient 4, 400 mg BID, Anal carcinoma, HPV 16 positive): SD | Best Overall Response ([3]; Patient 5, 300 mg BID, Vaginal cancer (SCC), HPV 16 positive): SD | Best Overall Response ([3]; Patient 6, 400 mg BID, Cervical cancer (SCC), HPV 16 positive): PR | Best Overall Response ([3]; Patient 7, 200 mg BID, Anal carcinoma (SCC), Positive unknown type): PD | Best Overall Response ([3]; Patient 8, 400 mg BID, Anal carcinoma, HPV 16 positive): PD | Best Overall Response ([3]; Patient 9, 600 mg QD, Anal carcinoma (rectovaginal), HPV 16,33,31 positive): SD | Best Overall Response ([3]; Patient 10, 400 mg BID, Cervical cancer (AC), HPV 16 positive): SD | Best Overall Response ([3]; Patient 11, 400 mg BID, Anal carcinoma (SCC), HPV/p16 status Not determined): PR | Best Overall Response ([3]; Patient 12, 600 mg QD, Anal carcinoma (SCC), HPV/p16 status Not determined): SD | Best Overall Response ([3]; Patient 13, 400 mg BID, Rectovaginal septum (SCC), P16+, HPV 16): PD | Best Overall Response ([3]; Patient 14, 600 mg QD, Anal carcinoma, HPV 16): PD | Best Overall Response ([3]; Patient 15, 800 mg QD, Anal carcinoma, HPV 16): PD | Best Overall Response ([3]; Patient 16, 800 mg QD, Vulvar (SCC), HPV/p16 status Not determined): PD | Best Overall Response ([3]; Patient 18, 800 mg QD, Cervical cancer (SCC), P16 positive): PD | Best Overall Response ([3]; Patient 19, 800 mg QD, Anal cancer, HPV 16 positive): PD | Best Overall Response ([3]; Patient 20, 800 mg QD, Anal cancer, HPV 16 positive): PD | Best Overall Response ([3]; Patient 21, 300 mg BID, Anal cancer, HPV 16): SD

IC50 [4]: < 10 nM | IC50 [1]: < 100 nM | IC50 [2]: < 10 nM
SMILES: Cc1c(NC(=O)c2nc3c(n2C)CCN(CCC24CCC(C(=O)O)(CC2)C4)C3)cccc1-c1cccc(NC(=O)c2nc3c(n2C)CCN(CCC24CCC(C(=O)O)(CC2)C4)C3)c1Cl [Compound 32, 4,4′-(((((2-chloro-2′-methyl-[1,1′-biphenyl]-3,3′-diyl)bis(azanediyl))bis(carbonyl))bis(1-methyl-1,4,6,7-tetrahydro-5H-imidazo[4,5-c]pyridine-2,5-diyl))bis(ethane-2,1-diyl))bis(bicyclo[2.2.1]heptane-1-carboxylic acid)]
EC50 [5]: < 100 nM

IC50 [4]: < 10 nM | IC50 [1]: < 100 nM | IC50 [2]: < 10 nM
SMILES: Cn1c(C(=O)Nc2cccc(-c3cccc(NC(=O)c4nc5c(n4C)CCN(CCC46CCC(C(=O)O)(CC4)C6)C5)c3C#N)c2Cl)nc2c1CCN(CCC13CCC(C(=O)O)(CC1)C3)C2 [Compound 33, 4,4′-(((((2-chloro-2′-cyano-[1,1′-biphenyl]-3,3′-diyl)bis(azanediyl))bis(carbonyl))bis(1-methyl-1,4,6,7-tetrahydro-5H-imidazo[4,5-c]pyridine-2,5-diyl))bis(ethane-2,1-diyl))bis(bicyclo[2.2.1]heptane-1-carboxylic acid)]
EC50 [5]: < 100 nM

IC50 [4]: < 10 nM | IC50 [1]: < 10 nM | IC50 [2]: < 10 nM
SMILES: Cc1c(Nc2nc(C(F)F)nc3cc(CN4CC[C@@H](O)C4)cnc23)cccc1-c1cccc(NC(=O)c2nc3c(n2C)CCN(CCC24CCC(C(=O)O)(CC2)C4)C3)c1Cl [Compound 34, (R)-4-(2-(2-((2-chloro-3′-((2-(difluoromethyl)-7-((3-hydroxypyrrolidin-1-yl)methyl)pyrido[3,2-d]pyrimidin-4-yl)amino)-2′-methyl-[1,1′-biphenyl]-3-yl)carbamoyl)-1-methyl-1,4,6,7-tetrahydro-5H-imidazo[4,5-c]pyridin-5-yl)ethyl)bicyclo[2.2.1]heptane-1-carboxylic acid]
EC50 [5]: < 10 nM
